Results as given in patent US20220202017A1, “MESOIONIC IMIDAZOLIUM COMPOUNDS AND DERIVATIVES FOR COMBATING ANIMAL PESTS” (BASF SE, priority 2019, published 2022).
Where two headings read alike, the source gives them in different places.

Assays:
Assay type in all cases: in vivo
Megoura viciae = experiment: Vetch aphid (Megoura viciae) control through contact or systemic means, broad bean leaf disks; conditions: foliar, 120 h, read-out: mortality in comparison with untreated controls (aphid mortality)
Protocol: Vetch Aphid (Megoura viciae)
For evaluating control of vetch aphid (Megoura viciae) through contact or systemic means the test unit consisted of 24-well-microtiter plates containing broad bean leaf disks.
The compounds were formulated using a solution containing 75% v/v water and 25% v/v DMSO. Different concentrations of formulated compounds were sprayed onto the leaf disks at 2.5 μl, using a custom built micro atomizer, at two replications. After application, the leaf disks were air-dried and 5-8 adult aphids placed on the leaf disks inside the microtiter plate wells. The aphids were then allowed to suck on the treated leaf disks and incubated at about 23±1° C. and about 50±5% relative humidity for 5 days. Aphid mortality and fecundity was then visually assessed.

Myzus persicae = experiment: Green peach aphid (Myzus persicae) control through systemic means, artificial diet under membrane; conditions: 72 h, read-out: mortality in comparison with untreated controls (aphid mortality)
Text: Green Peach Aphid (Myzus persicae)
For evaluating control of green peach aphid (Myzus persicae) through systemic means the test unit consisted of 96-well-microtiter plates containing liquid artificial diet under an artificial membrane. The compounds were formulated using a solution containing 75% v/v water and 25% v/v DMSO. Different concentrations of formulated compounds were pipetted into the aphid diet, using a custom built pipetter, at two replications. After application, 5-8 adult aphids were placed on the artificial membrane inside the microtiter plate wells. The aphids were then allowed to suck on the treated aphid diet and incubated at about 23±1° C. and about 50±5% relative humidity for 3 days. Aphid mortality and fecundity was then visually assessed.

Heliothis virescens = experiment: Tobacco budworm (Heliothis virescens) control, 96-well microtiter plate with insect diet and eggs; conditions: 120 h, sprayed onto insect diet, 5 days, visually assessed, read-out: mortality in comparison with untreated controls (egg and larval mortality)
Protocol: Tobacco Budworm (Heliothis virescens)
(§1) For evaluating control of tobacco budworm (Heliothis virescens) the test unit consisted of 96-well-microtiter plates containing an insect diet and 15-25 H. virescens eggs. The compounds were formulated using a solution containing 75% v/v water and 25% v/v DMSO. Different concentrations of formulated compounds were sprayed onto the insect diet at 10 μl, using a custom built micro atomizer, at two replications. After application, microtiter plates were incubated at about 28±1° C. and about 80±5% relative humidity for 5 days. Egg and larval mortality was then visually assessed.

Anthonomus grandis = experiment: Boll weevil (Anthonomus grandis) control, 96-well microtiter plate with insect diet and eggs; conditions: 120 h, sprayed onto insect diet, 5 days, visually assessed, read-out: mortality in comparison with untreated controls (egg and larval mortality)
Protocol: Boll Weevil (Anthonomus grandis)
as §1, with “boll weevil (Anthonomus grandis)” for “tobacco budworm (Heliothis virescens)”, “5-10 A. grandis” for “15-25 H. virescens”, “5” for “10”, “25±1°” for “28±1°”, “75±5%” for “80±5%”

[1] = 2500 ppm, sprayed onto leaf disks, 5 days, visually assessed
[2] = 2500 ppm, pipetted into aphid diet, 3 days, visually assessed

For `CCn1c([O-])c(C(=O)c2ccccc2)[n+]2c1SCC2c1ccc(Cl)nc1` (centres unmarked) [Compound C-1, 5-benzoyl-3-(6-chloro-3-pyridyl)-7-ethyl-2,3-dihydroimidazo[2,1-b]thiazol-4-ium-6-olate], the mortality at 2500 ppm (Megoura viciae) was greater than 75% and the mortality at 2500 ppm (Myzus persicae) was greater than 75%.
For `CC(=O)c1c([O-])[n+](C)c2n1C(c1cnc(Cl)s1)CS2` (centres unmarked) [Compound C-2], the mortality at 2500 ppm (Megoura viciae) was greater than 75% and the mortality at 2500 ppm (Myzus persicae) was greater than 75%.
`C[n+]1c([O-])c(C(=O)C(F)F)n2c1SCC2c1cnc(Cl)s1` (centres unmarked) [Compound C-3] showed a mortality at 2500 ppm (Heliothis virescens) greater than 75%, a mortality at 2500 ppm (Megoura viciae) greater than 75% and a mortality at 2500 ppm (Myzus persicae) greater than 75%.
`C[n+]1c([O-])c(C(=O)c2ccccc2)n2c1SCC2CC#N` (centres unmarked) [Compound C-4] showed a mortality at 2500 ppm (Megoura viciae; [1]) greater than 75% and a mortality at 2500 ppm (Myzus persicae; [2]) greater than 75%.
For `CC[n+]1c([O-])c(C(=O)C(F)(F)C(F)(F)F)n2c1SCC2c1ccc(Cl)nc1` (centres unmarked) [Compound C-6], the mortality at 2500 ppm (Anthonomus grandis) was greater than 75%, the mortality at 2500 ppm (Heliothis virescens) was greater than 75% and the mortality at 2500 ppm (Megoura viciae) was greater than 75%. It also gave a mortality at 2500 ppm (Myzus persicae) greater than 75%.
In the case of `CC[n+]1c([O-])c(C(=O)c2cccs2)n2c1SCC2c1ccc(Cl)nc1` (centres unmarked) [Compound C-7], the mortality at 2500 ppm (Anthonomus grandis) is reported as greater than 75%, the mortality at 2500 ppm (Megoura viciae) is reported as greater than 75% and the mortality at 2500 ppm (Myzus persicae) is reported as greater than 75%.
With `CC[n+]1c([O-])c(C(C)=O)n2c1SCC2c1ccc(Cl)nc1` (centres unmarked) [Compound C-8] the mortality at 2500 ppm (Anthonomus grandis) was greater than 75%, the mortality at 2500 ppm (Megoura viciae) was greater than 75% and the mortality at 2500 ppm (Myzus persicae) was greater than 75%.
For `C[n+]1c([O-])c(C(=O)C(=O)OCC(F)(F)F)n2c1SC[C@@H]2c1cnc(Cl)s1` [Compound C-9], the mortality at 2500 ppm (Megoura viciae; [1]) was greater than 75% and the mortality at 2500 ppm (Myzus persicae; [2]) was greater than 75%.
Molecule `CC[n+]1c([O-])c(C(=O)C(=O)OCC(F)(F)F)n2c1SCC2c1ccc(Cl)nc1` (centres unmarked) [Compound C-10] has a mortality at 2500 ppm (Megoura viciae) greater than 75% and a mortality at 2500 ppm (Myzus persicae) greater than 75%.
In the case of `CCOC(=O)C(=O)C1=C(O)N(C)C2N(C)CC(c3cnc(Cl)s3)N12` (centres unmarked) [Compound C-12], the mortality at 2500 ppm (Anthonomus grandis) is reported as greater than 75%, the mortality at 2500 ppm (Heliothis virescens) is reported as greater than 75% and the mortality at 2500 ppm (Myzus persicae) is reported as greater than 75%.
